In ChEMBL document CHEMBL1201862, “PubChem BioAssay data set” (2004):
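Each compound was tested at five concentrations against cells in 96-well plates for 48 hours. Abbreviation: GI50, concentration required for 50% inhibition of growth.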 Calls of active or inactive are those of the source. Rule as the data show it: active = GI50 up to about 1.1 µM and inactive = higher.

Legend:
Experiment in all cases: growth of human tumour cells (NCI), 48 h
HCT-116 = system: HCT-116
COLO 205 = system: COLO 205
HT-29 = system: HT-29
SNB-75 = system: SNB-75
LOX IMVI = system: LOX IMVI
SK-MEL-5 = system: SK-MEL-5
HL-60 = system: HL-60
ACHN = system: ACHN
A498 = system: A498
HOP-92 = system: HOP-92
786-0 = system: 786-0
NCI-H23 = system: NCI-H23
NCI-H460 = system: NCI-H460
SK-MEL-28 = system: SK-MEL-28
K562 = system: K562
SN12C = system: SN12C
Malme-3M = system: Malme-3M
SNB-78 = system: SNB-78
HOP-18 = system: HOP-18
SR = system: SR
NCI-H226 = system: NCI-H226
M19-MEL = system: M19-MEL
NCI-H522 = system: NCI-H522
UO-31 = system: UO-31
A549 = system: A549
RXF 393 = system: RXF 393
OVCAR-4 = system: OVCAR-4
DLD-1 = system: DLD-1
CCRF-CEM = system: CCRF-CEM
OVCAR-3 = system: OVCAR-3
SK-OV-3 = system: SK-OV-3
HCC 2998 = system: HCC 2998
RPMI-8226 = system: RPMI-8226
SF-295 = system: SF-295
SNB-19 = system: SNB-19
MOLT-4 = system: MOLT-4
CAKI-1 = system: CAKI-1
OVCAR-5 = system: OVCAR-5
LXFL 529 = system: LXFL 529
XF498 = system: XF498
M14 = system: M14
SW-620 = system: SW-620
KM-20L2 = system: KM-20L2
SF-539 = system: SF-539
TK-10 = system: TK-10
OVCAR-8 = system: OVCAR-8
U-251 = system: U-251
SF-268 = system: SF-268
DU-145 = system: DU-145
IGROV-1 = system: IGROV-1
KM12 = system: KM12
SK-MEL-2 = system: SK-MEL-2
UACC-62 = system: UACC-62
HCT-15 = system: HCT-15
RXF 631 = system: RXF 631
UACC-257 = system: UACC-257

## C=CCOCCCC(=O)C(=[N+]=[N-])C(=O)OC
HCT-116
  GI50: > 100 µM (inactive)
COLO 205
  GI50: > 100 µM (inactive)
HT-29
  GI50: > 100 µM (inactive)
SNB-75
  GI50: > 100 µM (inactive)
LOX IMVI
  GI50: > 100 µM (inactive)
SK-MEL-5
  GI50: > 100 µM (inactive)
HL-60
  GI50: > 100 µM (inactive)
ACHN
  GI50: > 100 µM (inactive)
A498
  GI50: > 100 µM (inactive)
HOP-92
  GI50: > 100 µM (inactive)
786-0
  GI50: > 100 µM (inactive)
NCI-H23
  GI50: > 100 µM (inactive)
NCI-H460
  GI50: > 100 µM (inactive)
SK-MEL-28
  GI50: > 100 µM (inactive)
K562
  GI50: > 100 µM (inactive)
SN12C
  GI50: > 100 µM (inactive)
Malme-3M
  GI50: > 100 µM (inactive)
SNB-78
  GI50: > 100 µM (inactive)
HOP-18
  GI50: > 100 µM (inactive)
SR
  GI50: > 100 µM (inactive)
NCI-H226
  GI50: > 100 µM (inactive)
M19-MEL
  GI50: > 100 µM (inactive)
NCI-H522
  GI50: > 100 µM (inactive)
UO-31
  GI50: > 100 µM (inactive)
A549
  GI50: > 100 µM (inactive)
RXF 393
  GI50: > 100 µM (inactive)
OVCAR-4
  GI50: > 100 µM (inactive)
DLD-1
  GI50: > 100 µM (inactive)
CCRF-CEM
  GI50: > 100 µM (inactive)
OVCAR-3
  GI50: > 100 µM (inactive)
SK-OV-3
  GI50: > 100 µM (inactive)
HCC 2998
  GI50: > 100 µM (inactive)
RPMI-8226
  GI50: > 100 µM (inactive)
SF-295
  GI50: > 100 µM (inactive)
SNB-19
  GI50: > 100 µM (inactive)
MOLT-4
  GI50: > 100 µM (inactive)
CAKI-1
  GI50: > 100 µM (inactive)
OVCAR-5
  GI50: > 100 µM (inactive)
LXFL 529
  GI50: > 100 µM (inactive)
XF498
  GI50: > 100 µM (inactive)
M14
  GI50: > 100 µM (inactive)
SW-620
  GI50: > 100 µM (inactive)
KM-20L2
  GI50: > 100 µM (inactive)
SF-539
  GI50: > 100 µM (inactive)
TK-10
  GI50: > 100 µM (inactive)
OVCAR-8
  GI50: > 100 µM (inactive)
U-251
  GI50: > 100 µM (inactive)
SF-268
  GI50: > 100 µM (inactive)
DU-145
  GI50: > 100 µM (inactive)
IGROV-1
  GI50: > 100 µM (inactive)
KM12
  GI50: > 100 µM (inactive)
SK-MEL-2
  GI50: > 100 µM (inactive)
UACC-62
  GI50: > 100 µM (inactive)
HCT-15
  GI50: > 100 µM
RXF 631
  GI50: > 100 µM (inactive)
UACC-257
  GI50: > 100 µM (inactive)
